Usually IC50 stands for the point on the concentration scale where inhibition reaches its midpoint.

Read-outs that look alike come from different tables or passages of the source.

The target in one test is T1, CCK receptor (pancreas) (Rattus norvegicus, UniProt P30551).
T1 construct: The whole pancreas of a male Sprague-Dawley rat (200-350 g), which had been sacrificed by decapitation, was dissected free of fat tissue and homogenized; from tissue; host or cells: rat pancreas membrane homogenate
T1 sequence (P30551 1-444): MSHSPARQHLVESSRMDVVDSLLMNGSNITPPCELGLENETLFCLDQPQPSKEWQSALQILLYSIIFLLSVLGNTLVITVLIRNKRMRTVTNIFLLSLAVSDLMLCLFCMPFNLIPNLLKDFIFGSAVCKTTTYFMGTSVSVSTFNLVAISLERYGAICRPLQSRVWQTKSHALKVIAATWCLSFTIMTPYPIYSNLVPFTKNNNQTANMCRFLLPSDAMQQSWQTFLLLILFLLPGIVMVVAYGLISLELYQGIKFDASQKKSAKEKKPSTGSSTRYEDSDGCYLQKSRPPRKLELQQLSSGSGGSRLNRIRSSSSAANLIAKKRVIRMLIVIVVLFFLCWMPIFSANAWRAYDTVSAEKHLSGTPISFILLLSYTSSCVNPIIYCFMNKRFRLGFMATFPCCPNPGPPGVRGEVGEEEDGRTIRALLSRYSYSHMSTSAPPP
The experiment in a line: CCK receptor binding (pancreas), 125I-CCK-33 receptor binding assay. Particulars: for IC50: inhibition of 50% of the 125I-CCK binding, rat pancreas membranes, 37°C, 30 minutes. The source says: Screening of these known compounds to determine biological activity and obtain an IC50 value for them to identify significant CCK-antagonism may be accomplished using an 125I-CCK receptor binding assay and in vitro isolated tissue preparations. These tests involve the following: • CCK receptor binding (pancreas) method
CCK-33 was radiolabeled with ^125I-Bolton Hunter reagent (2000 Ci/mmole), as described by Sankara et al. (J. Biol. Chem., 254, 9349-9351, 1979).
The whole pancreas of a male Sprague-Dawley rat (200-350 g), which had been sacrificed by decapitation, was dissected free of fat tissue and homogenized in 20 volumes of ice-cold 50 mM Tris HC1 (pH 7.7 at 25°C) with a Brinkmann Polytron PT-10. The homogenates were centrifuged at 48,000g for 10 minutes, then the resulting pellets were resuspended in Tris Buffer, centrifuged as above, and resuspended in 200 volumes of binding assay buffer (50 mM Tris HC1, pH 7.7 at 25°C, 5 mM dithiothreitol, 0.1 mM bacitracin, 1.2 mM phenylmethane sulfonyl fluoride and 0.5 mM o-phenanthroline).
All assays were run in duplicate or triplicate, and the reaction mixtures were incubated at 37°C for 30 minutes and centrifuged in a Beckman Microfuge (4 minutes) immediately after adding 1 ml of ice-cold incubation buffer. The supernatant was aspirated and discarded, and the pellets were counted with a Beckman gamma 5000.

Test [1] concerns CCK-8 response in guinea pig gall bladder. Briefly: Isolated guinea pig gall bladder, CCK-8 contractile response. The conditions noted are these: compound at 2 uM, added at least 5 minutes before CCK-8. As for the experimental part: Isolated guinea pig gall bladder method
The two halves of the gall bladders, free of adjacent tissue, of male Hartley guinea pigs (400-600 q), which had been sacrificed by ? were suspended under 1 g tension along the axis of the bile duct in 5 ml organ bath, containing a Kreb's bicarbonate solution of 118 mM NaCl, 4.75 mM KC1, 2.54 CaCl2, 1.19 mM KH2PO4, 1.2 mM MgS04, 25 mM NaHC03 and 11 mM dextrose, which is maintained at 32°C and bubbled with a mixture of 95% 02 and 5% C02. The tissues were washed every 10 minutes for 1 hour to obtain equilibrium prior to the beginning of the study and the isometric contractions of the strips were recorded using Statham (60 g:0.12 mm) strain gauges and a Hewlett-Packard 77588 recorder.
CCK-8 was added cumulatively to the baths and the EC50's were determined using regression analysis. After washout (every 10 minutes-for 1 hour), the compound to be tested was added at least 5 minutes before the addition of CCK-8 and the EC50 of CCK-8 in the presence of the compound to be tested was also simillarly determined.

The mark [2] stands for this setting: read-out: IC50 (µM) CCK Pancreas.

Regarding `CN1c2ccccc2C(c2ccccc2F)=NCC1CNC(=O)c1ccsc1` (racemic) [Compound 2, (±)-1-methyl-2-(thiophene-3-carbonyl) aminomethyl-5-(2'-fluorophenyl)-2,3-dihydro-l,4-benzodiazepine], the half-maximal inhibitory concentration (IC50) at CCK receptor (pancreas) (IC50 (µM) CCK Pancreas) came out at 0.2 µM. Further, the “mechanism of inhibition of specific 125I-CCK-33 receptor binding (Scatchard analysis)” value at CCK receptor (pancreas) (absence and presence of 0.2 µM of compound, increased the KD without affecting the Bmax) is given as “competitively inhibited specific ^125I-CCK-33 receptor binding”. The “effect on CCK dose response curve” value in test [1] is given as “parallel shift to the right of the CCK dose response curve without reduction of the maximal contractile response”.
With `CN1c2ccccc2C(c2ccccc2F)=NCC1CNC(=O)c1cccnc1` (stereo not drawn) [Compound 7, 1-methyl-2-(pyridine-3-carbonyl)aminomethyl-5-(2'-fluorophenyl)-1H-2,3-dihydro-1,4-benzodiazepine], the IC50 at CCK receptor (pancreas) (setting [2]) came to 10 µM.
`CN1c2ccccc2C(c2ccccc2F)=NCC1CNC(=O)c1ccsc1` (single isomer, unassigned; (-)) [Compound 1, (-)-1-methyl-2-(thiophene-3-carbonyl)aminomethyl-5-(2'-fluorophenyl)-1H-2,3-dihydro-1,4-benzodiazepine] showed an IC50 on CCK receptor (pancreas) (IC50 (µM) CCK Pancreas) of 0.1 µM.
`CN1c2ccccc2C(c2ccccc2F)=NCC1CNC(=O)c1ccsc1` (single isomer, unassigned; (+)) [Compound 6, (+)-1-methyl-2-(thiophene-3-carbonyl)aminomethyl-5-(2-fluorophenyl)-lH-2,3-dihydro-1,4-benzodiazepine] registered a concentration for half-maximal inhibition (IC50) on CCK receptor (pancreas) (IC50 (µM) CCK Pancreas) of 13.9 µM.
As to `CN1c2ccccc2C(c2ccccc2F)=NCC1CNC(=O)c1ccccc1F` (stereo not drawn) [Compound 4, l-methyl-2-(2-fluorophenyl-carbonyl)aminomethyl-5-(2'-fluorophenyl)-lH-2,3-dihydro-1,4-benzodiazepine], the IC50 at CCK receptor (pancreas) (setting [2]) was found to be 2.9 µM.
The same measure, in the same setting: in the case of `CN1c2ccccc2C(c2ccccc2F)=NCC1CN1C(=O)c2ccccc2C1=O` (stereo not drawn) [Compound 5, [(1-methyl-5-(2'-fluorophenyl)-lH-l,4-benzopin-2-yl)methyl]-lH-isoindole-1,3-(2H)-dione] it was 4.3 µM.
The same measure, in the same setting: in the case of `CN1c2ccccc2C(c2ccccc2F)=NCC1CNC(=O)c1ccc(Cl)cc1` (stereo not drawn) [Compound 3, l-methyl-2-(4'-chlorophenylcarbonyl) aminomethyl-5-(2'-fluorophenyl)-3H-2,3-dihydro-1,4-benzodiazepine] it was 0.8 µM.

Values taken from patent EP0170024A2, “Use of 2-acylaminomethyl-1,4-benzodiazepine derivatives for the production of pharmaceutical compositions and process for the preparation for pharmaceutical compositions” (priority 1984, dated 1986).
